Here are results for four molecules from US20050148514A1, “Method and composition for treatment of angiogenesis” (priority 2003, published 2005).

Where no end group is shown, it is not given here. The star is where a group is joined. Acm = CC(=O)NC*

One test relates to tumor growth. As to conditions: animals, previous results; cited from earlier work.
Test [1] relates to ERK. Nature of the test: Growth factor-induced ERK phosphorylation in HUVEC (western blot). The class given is cell-based, Human. As to conditions: serum-starved HUVEC, 300 μg/ml for 24 h, then VEGF. As for the experimental part: (§1) Cell culture. Human umbilical vein endothelial cells (HUVEC) and pulmonary aortic smooth muscle cells (PASMC) were obtained from Clonetics and maintained in endothelial cell basal medium-2, (EBM-2; Clonetics) and smooth muscle medium-2 (SmGM-2; Clonetics), respectively. Cells were cultured at 37° C. under a humidified atmosphere containing 5% CO2. For experimental purposes, cells were plated in 8 100-mm plastic dishes at 5,000 cells/cm^2 and were grown to confluence before overnight serum starvation. Cells were treated with vehicle or with a PCK3145 derivative diluted in 0.1 N NaOH, and stimulated with 50 ng/ml VEGF, PDGF or with 1 μM S1P.
Immunoprecipitation and immunoblotting procedures. After treatment, cells were washed once with phosphate-buffered saline (PBS) containing 1 mM sodium orthovanadate and were incubated in the same medium for 1 h at 4° C. The cells were solubilized on ice in lysis buffer (150 mM NaCl, 10 mM Tris-HCl, pH 7.4, 1 mM EDTA, 1 mM EGTA, 0.5% Nonidet P-40, 1% Triton X-100) containing 1 mM sodium orthovanadate. The cells were then scraped from the culture dishes and the resulting lysates were clarified by centrifugation at 10,000 g for 10 min. Protein concentrations were determined using the micro bicinchoninic acid method. For immunoprecipitation studies, lysates were clarified by a 1 h incubation at 4° C. with a mixture of Protein A/Protein G Sepharose beads. After removal of the Sepharose beads by low-speed centrifugation, identical amounts of protein (200 μg) from each sample were transferred to fresh tubes and incubated in lysis buffer overnight at 4° C. in the presence of 2 μg/ml of specific antibodies. Immunocomplexes were collected by incubating the mixture with 25 μl (50% suspension) of Protein A—(rabbit primary antibody) or Protein G—(mouse primary antibody) Sepharose beads, for 2 h. Nonspecifically-bound material was removed by washing the beads three times in 1 ml of lysis buffer containing 1 mM sodium orthovanadate, and bound material was solubilized in 25 μl of two-fold concentrated Laemmli sample buffer, boiled 5 min, and resolved by SDS-PAGE. The proteins were transferred onto polyvinylidene difluoride (PVDF) membranes, blocked 1 h at room temperature with Tris-buffered saline/Tween 20 (147 mM NaCl, 20 mM Tris/HCl, pH 7.5, and 0.1% Tween 20) containing 2% bovine serum albumin and incubated overnight at 4° C. with primary antibody.
VEGF is a strong activator of ERKs (Extracellular-signal-Regulated protein Kinases) 1 and 2 via VEGF receptor 2. In order to test the ability of the PCK3145 derivative in potentially antagonizing VEGF-mediated ERK phosphorylation, serum-starved quiescent endothelial cells (HUVEC) were incubated with vehicle (phosphate-buffered saline (PBS) pH 7.4) or PCK3145 derivative (300 μg/ml) for 24 h and then stimulated with VEGF, bFGF (basic Fibroblast Growth Factor) or S1P (sphingosine-1-phosphate). Cells were washed with PBS containing NaF/Na3VO4 and incubated in the same medium buffer for 1 h at 4° C. The cells were scraped from the culture dishes and the resulting lysates clarified by centrifugation. Western blotting and immunodetection using anti-phosphoERK and anti-ERK antibodies was then performed.

For the next test, the target named is T1, VEGFR-2 (Homo sapiens, UniProt P35968).
T1 construct: host or cells: HUVEC
Nature of the test: VEGF-induced VEGFR-2 phosphorylation in HUVEC (immunoprecipitation, western blot). In kind it is cell-based. The following applies: serum-starved HUVEC, 300 μg/ml; 24 h. As for the experimental part: as §1
Immunoprecipitation and immunoblotting procedures. After treatment, cells were washed once with phosphate-buffered saline (PBS) containing 1 mM sodium orthovanadate and were incubated in the same medium for 1 h at 4° C. The cells were solubilized on ice in lysis buffer (150 mM NaCl, 10 mM Tris-HCl, pH 7.4, 1 mM EDTA, 1 mM EGTA, 0.5% Nonidet P-40, 1% Triton X-100) containing 1 mM sodium orthovanadate. The cells were then scraped from the culture dishes and the resulting lysates were clarified by centrifugation at 10,000 g for 10 min. Protein concentrations were determined using the micro bicinchoninic acid method. For immunoprecipitation studies, lysates were clarified by a 1 h incubation at 4° C. with a mixture of Protein A/Protein G Sepharose beads. After removal of the Sepharose beads by low-speed centrifugation, identical amounts of protein (200 μg) from each sample were transferred to fresh tubes and incubated in lysis buffer overnight at 4° C. in the presence of 2 μg/ml of specific antibodies. […]
The multifunctionality of VEGF at the cellular level results from its ability to initiate a diverse, complex and integrated network of signaling pathways via its major receptor, VEGFR-2. […] After each treatment, equal amounts of protein were immunoprecipitated with anti-VEGFR-2 polyclonal antibodies and analysed by Western blotting.
On the technique in general: In western blotting, separated proteins are transferred to a membrane and probed.

The test system of test [2] is ERK. The test can be described thus: Intrinsic effect on ERK phosphorylation (western blot). In kind it is cell-based. The following applies: MAPK inhibitor added with PCK3145 derivative. As for the experimental part: In order to investigate the potential intracellular pathways triggered by the PCK3145 derivative, a gene-reporter assay using the SEAP (Secreted Alkaline Phosphatase) Mercury Profiling Kit (CLONTECH) was performed in glioma cells (U-87). This assay enables the monitoring of transcription factors that are triggered by a particular experimental condition by assaying the alkaline phosphatase activity in the extracellular media. […] The induction of the MAPK pathway by the PCK3145 derivative is further confirmed by the rapid and transient induction of ERK phosphorylation between 5-10 minutes (FIG. 8B) and is shown to be dose-dependent (FIG. 8C). Finally, the effects of the PCK3145 derivative were also compared to those of a scrambled peptide.

In test [3] the test system is ERK. As to conditions: cited from earlier work.
The subject of a further test is tumor cells. The following applies: cited from earlier work.
The subject of another test is skeletal metastasis. The following applies: cited from earlier work.

T1 sequence (P35968 20-1356): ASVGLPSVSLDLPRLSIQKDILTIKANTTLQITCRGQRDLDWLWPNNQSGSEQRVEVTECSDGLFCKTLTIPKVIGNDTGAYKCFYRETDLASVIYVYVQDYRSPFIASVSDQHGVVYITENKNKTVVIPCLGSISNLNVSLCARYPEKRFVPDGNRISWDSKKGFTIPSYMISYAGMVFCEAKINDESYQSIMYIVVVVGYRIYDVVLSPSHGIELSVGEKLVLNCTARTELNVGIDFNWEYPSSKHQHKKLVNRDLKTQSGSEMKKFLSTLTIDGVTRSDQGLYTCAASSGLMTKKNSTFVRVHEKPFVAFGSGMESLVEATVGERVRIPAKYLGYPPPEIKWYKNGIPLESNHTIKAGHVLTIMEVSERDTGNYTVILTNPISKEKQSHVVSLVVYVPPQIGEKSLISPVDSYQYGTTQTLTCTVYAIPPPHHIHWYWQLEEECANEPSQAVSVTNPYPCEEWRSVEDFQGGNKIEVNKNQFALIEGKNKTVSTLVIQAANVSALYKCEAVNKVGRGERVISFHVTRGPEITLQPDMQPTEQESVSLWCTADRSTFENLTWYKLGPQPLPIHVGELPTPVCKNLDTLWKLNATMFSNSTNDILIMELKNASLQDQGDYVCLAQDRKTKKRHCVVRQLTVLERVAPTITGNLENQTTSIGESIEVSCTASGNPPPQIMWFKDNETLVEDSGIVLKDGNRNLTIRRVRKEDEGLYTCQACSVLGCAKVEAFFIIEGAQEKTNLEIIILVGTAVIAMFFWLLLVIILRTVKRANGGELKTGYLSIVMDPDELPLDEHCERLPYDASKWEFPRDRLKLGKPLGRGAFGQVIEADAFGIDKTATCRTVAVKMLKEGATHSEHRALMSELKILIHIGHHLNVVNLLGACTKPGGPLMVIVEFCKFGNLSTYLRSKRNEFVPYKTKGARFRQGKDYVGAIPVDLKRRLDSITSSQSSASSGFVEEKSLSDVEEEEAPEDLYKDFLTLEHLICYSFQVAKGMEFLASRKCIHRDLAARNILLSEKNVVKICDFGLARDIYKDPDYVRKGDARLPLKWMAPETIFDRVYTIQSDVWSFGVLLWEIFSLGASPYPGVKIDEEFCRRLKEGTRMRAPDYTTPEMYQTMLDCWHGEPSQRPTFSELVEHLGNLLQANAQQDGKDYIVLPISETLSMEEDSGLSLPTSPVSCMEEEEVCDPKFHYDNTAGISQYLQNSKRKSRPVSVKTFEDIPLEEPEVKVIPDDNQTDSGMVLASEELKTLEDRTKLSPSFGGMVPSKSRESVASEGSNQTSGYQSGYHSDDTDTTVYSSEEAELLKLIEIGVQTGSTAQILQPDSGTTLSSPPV

Consider “EWQTDNCETCTCYET (cysteine pairing not given here) [PCK3145]”, for which the tumor growth result in the test with tumor growth is on record as “tumor growth inhibition”.

For the molecule “Thr-Cys(Acm)-Glu-Asn-Cys(Acm)-Thr-Glu-Thr-Gln-Trp-Cys(Acm)-Glu-Thr-Asp-Tyr (TC(Acm)ENC(Acm)TETQWC(Acm)ETDY) [scrambled peptide, negative control, reference compound]”, the “ERK phosphorylation induced by VEGF” value with ERK [1] is given as “lack of effect”. In addition, the “phosphorylation of VEGFR-2 induced by VEGF” value in the test with VEGFR-2 is given as “lack of effect”.

For the molecule `COc1cccc(-c2cc(=O)c3ccccc3o2)c1N` [PD98059, reference compound], the “effect on induction of ERK phosphorylation by the PCK3145 derivative” value in the test on ERK [2] is on record as “antagonized”. Besides, in the test on ERK [3], the “ERK phosphorylation (pharmacological inhibitor, documented)” value is listed as “documented pharmacological inhibitor of ERK phosphorylation”.

B1: Ser Cys Tyr Phe Ile Pro Asn Glu Gly Val Pro Gly Asp Ser Thr Arg Lys Cys Met Asp Leu Lys Gly Asn Lys His Pro Ile Asn Ser Glu Trp Gln Thr Asp Asn Cys Glu Thr Cys Thr Cys Tyr Glu Thr Glu Ile Ser Cys Cys … (protein, listed as Homo sapiens)
chain: SCYFIPNEGVPGDSTRKCMDLKGNKHPINSEWQTDNCETCTCYETEISCCTLVSTPVGYDKDNCQRIFKKEDCKYIVVEKKDPKKTCSVSEWII
notes: Prostate secretory protein, wild type
As for B1, in the test with tumor cells, the “growth of tumor cells” value is given as “inhibits growth”. Also, the calcium levels entry in the test with skeletal metastasis (animal modeling prostate cancer) is given as “reduction in calcium levels”. Moreover, the “development of skeletal metastasis” value with skeletal metastasis (in vivo) is recorded as “reduces the development of skeletal metastasis”.
